Earlier results, collected in US8091801B2, “Generation of therapeutic microfoam” (BTG International Limited, priority 1999, dated 2012).

Details: in water at STP

Mole Fraction Solubility | Compound
43.7 10^−5 | [N-]=[N+]=O [Nitrous oxide]
2.3 10^−5 | O=O [Oxygen]

Compound | Mole Fraction Solubility
[He] [Helium] | 0.7 10^−5
